Data as given in paper PMC11637483, “Dissecting caspase-2-mediated cell death: from intrinsic PIDDosome activation to chemical modulation” (Protein & Cell, 2024).
Entries after “also recorded” stand apart in the source; their conditions may differ.

Legend:
[1] = biological target: T1, MBP-CASP2(32-165)-L150P/Y151H (Homo sapiens, UniProt P42575, L150P/Y151H); assay: MicroScale Thermophoresis binding to L150P/Y151H mutant pro-domain; settings: MST, L150P/Y151H double mutant
T1 construct: cDNAs encoding BID and caspase-2 pro-domain (residues 32–165) were constructed into modified pET vectors; made in house; host or cells: E. coli BL21 (DE3)
T1 sequence (P42575 32-165 L150P/Y151H): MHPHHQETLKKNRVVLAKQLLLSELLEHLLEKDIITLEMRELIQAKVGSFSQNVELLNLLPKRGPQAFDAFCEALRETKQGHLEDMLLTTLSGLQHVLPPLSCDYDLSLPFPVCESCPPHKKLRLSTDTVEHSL
From the text: The contrasting responses of the two caspases to HUHS015 might result from sequence differences in the interdomain linker in the pro-domain. […] However, replacing L150 and Y151 in human caspase-2 with mouse P150 and H151, respectively, abolished HUHS015-induced caspase-2 activation as well as the cell death response (Fig. 4D). […] The importance of L150/Y151 for human caspase-2 activation by HUHS015 indicates these residues or the associated structure are likely involved in binding to the compound agonist.
MicroScale thermophoresis (MST) experiments were carried out at 25°C in the PBST Buffer (PBS with 0.05%, v/v Tween 20) by using a Monolith 2020 (TNG) (MM-208). […] The temperature-induced changes in fluorescence intensity of each sample in the capillary thermophoresis tubes were recorded by the Monolith instrument. The data were analyzed using the program provided by the manufacturer. The binding constant (KD) was calculated directly from the fitting.
Relative fluorescence (%) […]
(A) HUHS015-36 activates caspase-2 independently of PIDDosome. […] A TP-based cell viability is expressed as mean±s.d. from three technical replicates.
Immunoblotting detecting caspase-2 and BID processing is shown. […] A TP-based cell viability is expressed as mean±s.d. from three technical replicates. […]

[2] = system: mouse caspase-2-expressing HeLa cells; assay: Cell death and caspase-2 processing in HeLa TKO cells expressing mouse caspase-2; type: cell-based; settings: high concentrations of HUHS015
From the text: Figure 4. HUHS015 activates human caspase-2 directly through specific targeting of the interdomain linker of caspase-2. (A) The direct binding between HUHS015-36 and MBP-fused human caspase-2 pro-domain was detected by microscale thermophoresis (MST). MST profiles for raw binding signals and affinity (KD) measurement are shown. The calculated dissociation constant (KD) is expressed as means ± s.d. from two determinations. (B) Sequence alignment of the pro-domain (residues 1–169) of human and mouse caspase-2. CARD domain annotation is shown on top of the sequences. Identical residues are in red background and conserved ones are in red. Numbers of starting residues are indicated on the left. Different residues in the interdomain linker (residues 122–169) were highlighted with green color. (C) HUHS015 activates human but not mouse caspase-2. HeLa TKO cells rescued with human or mouse caspase-2 expression were treated with HUHS015 for the indicated time. […] ATP-based cell viability in panels (C–E) is expressed as mean ± s.d. from three technical replicates. […] TEXT PRINTED IN THE PICTURE: (A) HUHS015-36: MBP-CASP2(32–165) vs. HUHS015-36: KD (μmol/L): 22.05 ± 6.151; MBP vs. HUHS015-36: KD (μmol/L): Not detected […]
Cell viability was measured by the ATP assay using the CellTiter-Glo® Luminescent Cell Viability Assay kit (Promega).

Row | SMILES | KD [1] | apoptosis / caspase-2 processing [2]
1 | Cc1cccc2nc(-n3nc4c(c3O)CCCC4)[nH]c12 [HUHS015-36] | Not detected; also recorded: failed to detect confident binding | –
2 | Cc1ccc2nc(-n3nc(C)c(Cc4ccccc4)c3O)[nH]c2c1 [HUHS015] | – | no apoptosis
